From patent US11427567B2, “Imidazolyl pyrimidinylamine compounds as CDK2 inhibitors” (Incyte Corporation, priority 2019, dated 2022)

Target: CDK2/Cyclin E1 (Homo sapiens (Human), UniProt P24941)
Assay: CDK2/Cyclin E1 HTRF enzyme activity assay (Example A)
Assay type: biochemical
Conditions: 1 mM ATP
Method: Assays were conducted in white 384-well polystyrene plates in a final reaction volume of 8 μL. […] HTRF signals were read after 1 hour at room temperature on a PHERAstar FS plate reader (BMG Labtech). Data was analyzed with IDBS XLFit and GraphPad Prism 5.0 software using a three or four parameter dose response curve to determine IC50 for each compound.

IC50, ≤ 0.05 µM:
CS(=O)(=O)N1CCC(Nc2ncc(C(F)(F)F)c(-c3cn(-c4cccc(CN5CC[C@H](O)C5)c4Cl)cn3)n2)CC1 [Example 365, (S)-1-(2-Chloro-3-(4-(2-((1-(methylsulfonyl)piperidin-4-yl)amino)-5-(trifluoromethyl)pyrimi-din-4-yl)-1H-imidazol-1-yl)benzyl)pyrrolidin-3-ol]
Cc1nc(-c2nc(N[C@H]3CCN(S(C)(=O)=O)C[C@H]3F)ncc2C(F)(F)F)cn1-c1cccc(C#N)c1F [Example 305, 2-Fluoro-3-(4-(2-(((3R,4S)-3-fluoro-1-(methylsulfonyl)piperidin-4-yl)amino)-5-(trifluoromethyl)pyrimidin-4-yl)-2-methyl-1H-imidazol-1-yl)benzonitrile]
CS(=O)(=O)N1CCC(Nc2ncc(C(F)(F)F)c(-c3cn(-c4ccc(CO)cc4Cl)cn3)n2)CC1 [Example 231, (3-Chloro-4-(4-(2-((1-(methylsulfonyl)piperidin-4-yl)amino)-5-(trifluoromethyl)pyrimidin-4-yl)-1H-imidazol-1-yl)phenyl)methanol]
C[C@@]1(O)CCN(Cc2ccc(-n3cnc(-c4nc(NC5CCN(S(C)(=O)=O)CC5)ncc4C(F)(F)F)c3)c(Cl)c2)C1 [Example 181, (R)-1-(3-Chloro-4-(4-(2-((1-(methylsulfonyl)piperidin-4-yl)amino)-5-(trifluoromethyl)pyrimidin-4-yl)-1H-imidazol-1-yl)benzyl)-3-methylpyrrolidin-3-ol]
CS(=O)(=O)N1CCC(Nc2ncc(C(F)(F)F)c(-c3cn(-c4ccc(CNCC(F)F)cc4Cl)cn3)n2)CC1 [Example 186, 4-(1-(2-Chloro-4-(((2,2-difluoroethyl)-amino)methyl)phenyl)-1H-imidazol-4-yl)-N-(1-(methylsulfonyl)-piperidin-4-yl)-5-(trifluoromethyl)-pyrimidin-2-amine]
CS(=O)(=O)N1CCC(Nc2ncc(C(F)(F)F)c(-c3cn(-c4ccc(CN5CCOCC5)cc4Cl)cn3)n2)CC1 [Example 210, 4-(1-(2-Chloro-4-(morpholinomethyl)-phenyl)-1H-imidazol-4-yl)-N-(1-(methyl-sulfonyl)piperidin-4-yl)-5-(trifluoro-methyl)pyrimidin-2-amine]
CCN1CCN(Cc2ccc(-n3cnc(-c4nc(N[C@@H]5CCN(S(C)(=O)=O)C[C@H]5F)ncc4C(F)(F)F)c3)c(Cl)c2)CC1 [Example 398, 4-(1-(2-Chloro-4-((4-ethylpiperazin-1-yl)methyl)phenyl)-1H-imidazol-4-yl)-N-((3R,4R)-3-fluoro-1-(methylsulfonyl)piperidin-4-yl)-5-(trifluoromethyl)pyrimidin-2-amine]
Cc1nc(-c2nc(NC3CCN(S(C)(=O)=O)CC3)ncc2C(F)(F)F)cn1-c1ccnc(C#N)c1F [Example 309, 3-Fluoro-4-(2-methyl-4-(2-((1-(methylsulfonyl)piperidin-4-yl)amino)-5-(trifluoromethyl)pyrimidin-4-yl)-1H-imidazol-1-yl)picolinonitrile]
CS(=O)(=O)N1CCC(Nc2ncc(C(F)(F)F)c(-c3cn(-c4ccc(CN5CC6CCC5CC6)cc4Cl)cn3)n2)CC1 [Example 179, 4-(1-(4-((2-Azabicyclo[2.2.2]octan-2-yl)methyl)-2-chlorophenyl)-1H-imidazol-4-yl)-N-(1-(methylsulfonyl)piperidin-4-yl)-5-(trifluoromethyl)pyrimidin-2-amine]
CS(=O)(=O)N1CCC(Nc2ncc(C(F)(F)F)c(-c3cn(-c4c(F)cccc4C#N)cn3)n2)CC1 [Example 294, 3-Fluoro-2-(4-(2-((1-(methylsulfonyl)piperidin-4-yl)amino)-5-(trifluoromethyl)pyrimidin-4-yl)-1H-imidazol-1-yl)benzonitrile]
COC1CN(Cc2ccc(-n3cc(-c4nc(NC5CCN(S(C)(=O)=O)CC5)ncc4C(F)(F)F)nc3C)c(F)c2)C1 [Example 353, 4-(1-(2-Fluoro-4-((3-methoxyazetidin-1-yl)methyl)phenyl)-2-methyl-1H-imidazol-4-yl)-N-(1-(methylsulfonyl)piperidin-4-yl)-5-(trifluoromethyl)pyrimidin-2-amine]
CNCc1ccc(-n2cnc(-c3nc(NC4CCN(S(C)(=O)=O)CC4)ncc3C(F)(F)F)c2)c(C(F)(F)F)c1 [Example 254, 4-(1-(4-((Methylamino)methyl)-2-(trifluoromethyl)phenyl)-1H-imidazol-4-yl)-N-(1-(methylsulfonyl)piperidin-4-yl)-5-(trifluoromethyl)pyrimidin-2-amine]
Cc1nc(-c2nc(NC3CCN(S(C)(=O)=O)CC3)ncc2C(F)(F)F)cn1-c1ccc(OCCN(C)C)cc1F [Example 423, 4-(1-(4-(2-(Dimethylamino)ethoxy)-2-fluorophenyl)-2-methyl-1H-imidazol-4-yl)-N-(1-(methylsulfonyl)piperidin-4-yl)-5-(trifluoromethyl)pyrimidin-2-amine]
Cc1nc(C#N)ccc1-n1cnc(-c2nc(NC3CCN(S(C)(=O)=O)CC3)ncc2C(F)(F)F)c1 [Example 33, 6-Methyl-5-(4-(2-((1-(methylsulfonyl)piperidin-4-yl)amino)-5-(trifluoromethyl)pyrimidin-4-yl)-1H-imidazol-1-yl)picolinonitrile]
Cn1cc(S(=O)(=O)N2CCC(Nc3ncc(C(F)(F)F)c(-c4cn(CC(F)F)cn4)n3)CC2)cn1 [Example 334, 4-(1-(2,2-Difluoroethyl)-1H-imidazol-4-yl)-N-(1-((1-methyl-1H-pyrazol-4-yl)sulfonyl)piperidin-4-yl)-5-(trifluoromethyl)pyrimidin-2-amine]
CN(C)Cc1ccc(-n2cnc(-c3nc(NC4CCN(S(C)(=O)=O)CC4)ncc3C(F)(F)F)c2)c(C(F)(F)F)c1 [Example 250, 4-(1-(4-((Dimethylamino)methyl)-2-(trifluoromethyl)phenyl)-1H-imidazol-4-yl)-N-(1-(methylsulfonyl)piperidin-4-yl)-5-(trifluoromethyl)pyrimidin-2-amine]
CCNCc1ccc(-n2cnc(-c3nc(N[C@@H]4CCN(S(C)(=O)=O)C[C@H]4F)ncc3C(F)(F)F)c2)c(Cl)c1 [Example 401]
COc1nccc(-n2cc(-c3nc(N[C@H]4CCN(S(C)(=O)=O)C[C@H]4F)ncc3C(F)(F)F)nc2C)c1F [Example 311, N-((3R,4S)-3-Fluoro-1-(methylsulfonyl)piperidin-4-yl)-4-(1-(3-fluoro-2-methoxypyridin-4-yl)-2-methyl-1H-imidazol-4-yl)-5-(trifluoromethyl)pyrimidin-2-amine]
Cc1nc(-c2nc(NC3CCN(S(C)(=O)=O)CC3)ncc2C(F)(F)F)cn1-c1ccc(CNC2CC2)cc1F [Example 356, 4-(1-(4-((Cyclopropylamino)methyl)-2-fluorophenyl)-2-methyl-1H-imidazol-4-yl)-N-(1-(methylsulfonyl)piperidin-4-yl)-5-(trifluoromethyl)pyrimidin-2-amine]
CC(C)(O)Cn1cnc(-c2nc(NC3CCN(S(C)(=O)=O)CC3)ncc2C#N)c1 [Example 27, 4-(1-(2-Hydroxy-2-methylpropyl)-1H-imidazol-4-yl)-2-((1-(methylsulfonyl)piperidin-4-yl)amino)pyrimidine-5-carbonitrile]
CS(=O)(=O)N1CCC(Nc2ncc(C(F)(F)F)c(-c3cn(-c4ccc(CNCC(F)F)cc4C(F)(F)F)cn3)n2)CC1 [Example 448, 4-(1-(4-(((2,2-Difluoroethyl)amino)methyl)-2-(trifluoromethyl)phenyl)-1H-imidazol-4-yl)-N-(1-(methylsulfonyl)piperidin-4-yl)-5-(trifluoromethyl)pyrimidin-2-amine]
C[C@@H]1CN(S(C)(=O)=O)CC[C@@H]1Nc1ncc(C(F)(F)F)c(-c2cn(CC(C)(C)O)cn2)n1 [Example 327, 2-Methyl-1-(4-(2-(((3R,4S)-3-methyl-1-(methylsulfonyl)piperidin-4-yl)amino)-5-(trifluoromethyl)pyrimidin-4-yl)-1H-imidazol-1-yl)propan-2-ol]
CNC(C)c1cccc(-n2cnc(-c3nc(NC4CCN(S(C)(=O)=O)CC4)ncc3C(F)(F)F)c2)c1Cl (centres unmarked) [Example 377, 4-(1-(2-Chloro-3-(1-(methylamino)ethyl)phe-nyl)-1H-imidazol-4-yl)-N-(1-(methylsulfonyl)piperidin-4-yl)-5-(trifluoromethyl)pyrimi-din-2-amine]
C[C@@H]1CN(S(C)(=O)=O)CC[C@@H]1Nc1ncc(C(F)(F)F)c(-c2cn(-c3ccc(CN(C)C)cc3Cl)cn2)n1 [Example 220, 4-(1-(2-Chloro-4-((dimethylamino)-methyl)phenyl)-1H-imidazol-4-yl)-N-((3R,4S)-3-methyl-1-(methylsulfonyl)-piperidin-4-yl)-5-(trifluoromethyl)-pyrimidin-2-amine]
CN1CCN(c2ccc(-n3cnc(-c4nc(NC5CCN(S(C)(=O)=O)CC5)ncc4C(F)(F)F)c3)c(Cl)c2)CC1=O [Example 142, 4-(3-Chloro-4-(4-(2-((1-(methyl-sulfonyl)piperidin-4-yl)amino)-5-(trifluoromethyl)-pyrimidin-4-yl)-1H-imidazol-1-yl)phenyl)-1-methylpiperazin-2-one]
CNCc1ccc(-n2cnc(-c3nc(N[C@@H]4CCN(S(C)(=O)=O)C[C@H]4F)ncc3C(F)(F)F)c2)c(Cl)c1 [Example 225, 4-(1-(2-Chloro-4-((methylamino)-methyl)phenyl)-1H-imidazol-4-yl)-N-((3R,4R)-3-fluoro-1-(methylsulfonyl)-piperidin-4-yl)-5-(trifluoromethyl)-pyrimidin-2-amine]
